Measured values taken from patent US9271978B2 (Zenith Epigenetics Corp., priority 2012, dated 2016).
Counter-ions that a name gives are not always drawn.

biological target: T1, Brd4 bromodomain 1 (BRD4(1)) (Homo sapiens, UniProt O60885); assay: Inhibition of tetra-acetylated histone H4 binding to Brd4 bromodomain 1 (TR-FRET); parameters: key: Active: Compounds with an IC50 value less than 30 μM were deemed to be active.; Not Active: Compounds with an IC50 value less than 30 μM were deemed to be active; details: tetra-acetylated histone H4 peptide, active = IC50 <30 μM
T1 construct: Illustrative results with the first bromodomain of Brd4; made in house; host or cells: E. coli BL21 (DE3)
Protocol: Proteins were cloned and overexpressed with a N-terminal 6×His tag, then purified by nickel affinity followed by size exclusion chromatography. Briefly, E. coli BL21 (DE3) cells were transformed with a recombinant expression vector encoding N-terminally Nickel affinity tagged bromodomains from Brd2, Brd3, Brd4. Cell cultures were incubated at 37° C. with shaking to the appropriate density and induced overnight with IPTG. The supernatant of lysed cells was loaded onto Ni-IDA column for purification. Eluted protein is pooled, concentrated and further purified by size exclusion chromatography. Fractions representing monomeric protein were pooled, concentrated, aliquoted, and frozen at −80° C. for use in subsequent experiments.
Binding of tetra-acetylated histone H4 and BET bromodomains was confirmed by a Time Resolved Fluorescence Resonance Energy Transfer (TR-FRET) method. N-terminally His-tagged bromodomains (200 nM) and biotinylated tetra-acetylated histone H4 peptide (25-50 nM, Millipore) were incubated in the presence of Europium Cryptate-labeled streptavidin (Cisbio Cat. #610SAKLB) and XL665-labeled monoclonal anti-His antibody (Cisbio Cat. #61HISXLB) in a white 96 well microtiter plate (Greiner). For inhibition assays, serially diluted test compound was added to these reactions in a 0.2% final concentration of DMSO. Final buffer concentrations were 30 mM HEPES pH 7.4, 30 mM NaCl, 0.3 mM CHAPS, 20 mM phosphate pH 7.0, 320 mM KF, 0.08% BSA). After a 2-h incubation at room temperature, the fluorescence by FRET was measured at 665 and 620 nm by a SynergyH4 plate reader (Biotek). Illustrative results with the first bromodomain of Brd4 and the second bromodomain of Brd2 are shown below. The binding inhibitory activity was shown by a decrease in 665 nm fluorescence relative to 620 nm. IC50 values were determined from a dose response curve.

| Structure (SMILES) | FRET activity (IC50 <30 μM) BRD4(1) |
| --- | --- |
| COc1cc(=O)n(Cc2ccccc2)cc1-c1c(C)noc1C [Example 154, 1-Benzyl-5-(3,5-dimethylisoxazol-4-yl)-4-methoxypyridin-2(1H)-one] | Active |
| Cc1noc(C)c1-c1cc(Nc2ccc(F)cc2)c(=O)n(Cc2ccccc2)c1 [Example 156, 1-Benzyl-5-(3,5-dimethylisoxazol-4-yl)-3-((4-fluorophenyl)amino)pyridin-2(1H)-one] | Active |
| Cc1onc(CO)c1-c1ccc(=O)n(Cc2ccc(Cl)cc2)c1 [Example 159, 1-(4-Chlorobenzyl)-5-(3-(hydroxymethyl)-5-methylisoxazol-4-yl)pyridin-2(1H)-one] | Active |
| Cc1noc(C)c1-c1cc(N2CCNCC2)c(=O)n(Cc2ccccc2)c1 [Example 161, 1-Benzyl-5-(3,5-dimethylisoxazol-4-yl)-3-(piperazin-1-yl)pyridin-2(1H)-one Hydrochloride] | Not Active |
| CC(c1ccccc1)n1nc(-c2ccc(O)cc2)ccc1=O (stereo not shown) [Example 178, 6-(4-hydroxyphenyl)-2-(1-phenylethyl)pyridazin-3(2H)-one] | Active |
| Cc1noc(C)c1-c1cc(Nc2ccncc2)c(=O)n(Cc2ccccc2)c1 [Example 195, 1-benzyl-5-(3,5-dimethylisoxazol-4-yl)-3-(pyridin-4-ylamino)pyridin-2(1H)-one] | Active |
| Cc1nsc(C)c1-c1ccc(=O)n(Cc2ccccc2)c1 [Example 196, 1-benzyl-5-(3,5-dimethylisothiazol-4-yl)pyridin-2(1H)-one] | Active |
| COC(=O)c1noc(C)c1-c1ccc(=O)n(Cc2ccc(Cl)cc2)c1 [Example 199, Methyl 4-(1-(4-chlorobenzyl)-6-oxo-1,6-dihydropyridin-3-yl)-5-methylisoxazole-3-carboxylate] | Not Active |
| Cc1noc(C)c1CNc1ccc(=O)n(Cc2ccccc2)n1 [Example 201, 2-Benzyl-6-(((3,5-dimethylisoxazol-4-yl)methyl)amino)pyridazin-3(2H)-one] | Not Active |
| Cc1onc(C(N)=O)c1-c1ccc(=O)n(Cc2ccc(Cl)cc2)c1 [Example 202, 4-(1-(4-Chlorobenzyl)-6-oxo-1,6-dihydropyridin-3-yl)-5-methylisoxazole-3-carboxamide] | Active |
| Cc1noc(C)c1-c1cc(-n2ccnc2)c(=O)n(Cc2ccccc2)c1 [Example 204, 1-benzyl-5-(3,5-dimethylisoxazol-4-yl)-3-(1H-imidazol-1-yl)pyridin-2(1H)-one] | Active |
| Cc1onc(C(=O)O)c1-c1ccc(=O)n(Cc2ccc(Cl)cc2)c1 [Example 225, 4-(1-(4-Chlorobenzyl)-6-oxo-1,6-dihydropyridin-3-yl)-5-methylisoxazole-3-carboxylic acid] | Not Active |
| Cc1noc(C)c1-c1cc(C(=O)O)c(=O)n(Cc2ccccc2)c1 [Example 229, 1-Benzyl-5-(3,5-dimethylisoxazol-4-yl)-2-oxo-1,2-dihydropyridine-3-carboxylic acid] | Active |
| Cc1noc(C)c1-c1cc(Nc2ccc(C#N)nc2)c(=O)n(Cc2ccccc2)c1 [Example 232, 5-((1-benzyl-5-(3,5-dimethylisoxazol-4-yl)-2-oxo-1,2-dihydropyridin-3-yl)amino)picolinonitrile] | Active |
| Cc1noc(C)c1-c1cc(NC2CCNC2)c(=O)n(Cc2ccccc2)c1 (stereo not shown) [Example 239, 1-benzyl-5-(3,5-dimethylisoxazol-4-yl)-3-(pyrrolidin-3-ylamino)pyridin-2(1H)-one] | Active |
| Cc1noc(C)c1-c1cc(NCC(F)(F)F)c(=O)n(Cc2ccc(Cl)cc2)c1 [Example 243, 1-(4-Chlorobenzyl)-5-(3,5-dimethylisoxazol-4-yl)-3-((2,2,2-trifluoroethyl)amino)pyridin-2(1H)-one] | Active |
| Cc1ccc(Nc2cc(-c3c(C)noc3C)cn(Cc3ccccc3)c2=O)cn1 [Example 245, 1-benzyl-5-(3,5-dimethylisoxazol-4-yl)-3-((6-methylpyridin-3-yl)amino)pyridin-2(1H)-one] | Active |
| CON(C)C(=O)c1noc(C)c1-c1ccc(=O)n(Cc2ccccc2)c1 [Example 249, 4-(1-benzyl-6-oxo-1,6-dihydropyridin-3-yl)-N-methoxy-N,5-dimethylisoxazole-3-carboxamide] | Not Active |
| Cc1noc(C)c1-c1cc(N)c(=O)n(Cc2cccc3c2OCO3)c1 [Example 257, 3-amino-1-(benzo[d][1,3]dioxol-4-ylmethyl)-5-(3,5-dimethylisoxazol-4-yl)pyridin-2(1H)-one] | Active |
| Cc1noc(C(=O)O)c1-c1ccc(=O)n(Cc2ccc(Cl)cc2)c1 [Example 260, 4-(1-(4-chlorobenzyl)-6-oxo-1,6-dihydropyridin-3-yl)-3-methylisoxazole-5-carboxylic acid] | Not Active |
| CNC(=O)c1onc(C)c1-c1ccc(=O)n(Cc2ccc(Cl)cc2)c1 [Example 265, 4-(1-(4-chlorobenzyl)-6-oxo-1,6-dihydropyridin-3-yl)-N,3-dimethylisoxazole-5-carboxamide] | Not Active |
| Cc1noc(C)c1-c1cc(CN)c(=O)n(Cc2ccccc2)c1 [Example 266, 3-(Aminomethyl)-1-benzyl-5-(3,5-dimethylisoxazol-4-yl)pyridin-2(1H)-one] | Not Active |
| O=C1CC(c2ccc(=O)n(Cc3ccccc3)c2)CN1 (stereo not shown) [Example 268, 1-Benzyl-5-(5-oxopyrrolidin-3-yl)pyridin-2(1H)-one] | Not Active |
| Cc1noc(C)c1-c1cc(N)c(=O)n(C(C)c2ccc(C#N)cc2)c1 (stereo not shown) [Example 269, 4-(1-(3-amino-5-(3,5-dimethylisoxazol-4-yl)-2-oxopyridin-1(2H)-yl)ethyl)benzonitrile] | Not Active |

Now from value to compound:

| FRET activity (IC50 <30 μM) BRD4(1) | Structure (SMILES) |
| --- | --- |
| Active | Cc1noc(C)c1-c1cc(N2CCN(C)CC2)c(=O)n(Cc2ccccc2)c1 [Example 153, 1-Benzyl-5-(3,5-dimethylisoxazol-4-yl)-3-(4-methylpiperazin-1-yl)pyridin-2(1H)-one Hydrochloride] |
| Not Active | Cc1nnc(C)n1-c1ccc(=O)n(Cc2ccc(Cl)cc2)c1 [Example 197, 1-(4-chlorobenzyl)-5-(3,5-dimethyl-4H-1,2,4-triazol-4-yl)pyridin-2(1H)-one] |
| Not Active | Cc1noc(C)c1-c1cc(NS(C)(=O)=O)c(=O)n(Cc2ccccc2)c1 [Example 200, N-(1-Benzyl-5-(3,5-dimethylisoxazol-4-yl)-2-oxo-1,2-dihydropyridin-3-yl)methanesulfonamide] |
| Active | Cc1noc(C)c1-c1cc(N)c(=O)n(C)c1 [Example 224, 3-Amino-5-(3,5-dimethylisoxazol-4-yl)-1-methylpyridin-2(1H)-one] |
| Active | COc1ccc(Nc2cc(-c3c(C)noc3C)cn(Cc3ccccc3)c2=O)cn1 [Example 234, 1-benzyl-5-(3,5-dimethylisoxazol-4-yl)-3-((6-methoxypyridin-3-yl)amino)pyridin-2(1H)-one] |
| Active | Cc1noc(C)c1-c1cc(Nc2cnccn2)c(=O)n(Cc2ccccc2)c1 [Example 235, 1-benzyl-5-(3,5-dimethylisoxazol-4-yl)-3-(pyrazin-2-ylamino)pyridin-2(1H)-one] |
| Active | Cc1noc(C)c1-c1cc(Nc2cncnc2)c(=O)n(Cc2ccccc2)c1 [Example 236, 1-benzyl-5-(3,5-dimethylisoxazol-4-yl)-3-(pyrimidin-5-ylamino)pyridin-2(1H)-one] |
| Active | Cc1noc(C)c1-c1cc(Nc2cccnc2)c(=O)n(Cc2ccccc2)n1 [Example 248, 2-benzyl-6-(3,5-dimethylisoxazol-4-yl)-4-(pyridin-3-ylamino)pyridazin-3(2H)-one] |
| Active | Cc1noc(C)c1-c1cc(N)c(=O)n(Cc2ccncc2Cl)c1 [Example 253] |
| Not Active | COC(=O)c1onc(C)c1-c1ccc(=O)n(Cc2ccc(Cl)cc2)c1 [Example 259, methyl 4-(1-(4-chlorobenzyl)-6-oxo-1,6-dihydropyridin-3-yl)-3-methylisoxazole-5-carboxylate] |
